Experimental data taken from patent publication US20110053910A1, “2 -HETEROCYCLYLOXYBENZOYL AMINO HETEROCYCLYL COMPOUNDS AS MODULATORS OF GLUCOKINASE FOR THE TREATMENT OF TYPE 2 DIABETES” (priority 2005, published 2011).

Legend:
[1] = target: T1, recombinant human pancreatic GLK (Homo sapiens, UniProt P35557); experiment: biochemical
T1 sequence (P35557 1-465): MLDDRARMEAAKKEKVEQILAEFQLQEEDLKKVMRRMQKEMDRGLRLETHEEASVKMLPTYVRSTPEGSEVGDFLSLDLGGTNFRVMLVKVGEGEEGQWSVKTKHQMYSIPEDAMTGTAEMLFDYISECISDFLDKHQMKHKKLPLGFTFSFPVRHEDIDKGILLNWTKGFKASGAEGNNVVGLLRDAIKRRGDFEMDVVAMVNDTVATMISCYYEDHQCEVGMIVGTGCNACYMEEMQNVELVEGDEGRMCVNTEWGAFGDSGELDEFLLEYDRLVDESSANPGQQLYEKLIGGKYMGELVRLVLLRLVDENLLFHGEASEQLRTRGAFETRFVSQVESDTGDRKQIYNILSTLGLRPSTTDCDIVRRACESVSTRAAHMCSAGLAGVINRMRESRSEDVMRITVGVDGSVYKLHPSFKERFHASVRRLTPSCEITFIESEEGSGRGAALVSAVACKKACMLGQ

Zucker obese fa/fa rats = experiment: Oral Glucose Tolerance Test (OGTT); assay type: in vivo, rat; settings: 10 mg/kg, given orally 120 minutes before glucose 2 g/kg; Zucker obese fa/fa rats on high fat diet; vehicle-control AUC = zero percent
Procedure: Oral glucose tolerance tests were done on conscious Zucker obese fa/fa rats (age 12-13 weeks or older) fed a high fat diet (45% kcal fat) for at least two weeks prior to experimentation. The animals were fasted for 2 hours before use for experiments. A test compound or a vehicle was given orally 120 minutes before oral administration of a glucose solution at a dose of 2 g/kg body weight. Blood glucose levels were measured using a Accucheck glucometer from tail bled samples taken at different time points before and after administration of glucose (time course of […]). A time curve of the blood glucose levels was generated and the area-under-the-curve (AUC) for 120 minutes was calculated (the time of glucose administration being time zero). Percent reduction in glucose excursion was determined using the AUC in the vehicle-control group as zero percent reduction.

Compound: C[C@@H](CO)Oc1cc(Oc2nc3ccccc3s2)cc(C(=O)Nc2ccn(C)n2)c1 [Example 1, 3-(1,3-Benzothiazol-2-yloxy)-5-{[(1S)-2-hydroxy-1-methylethyl]oxy}-N-(1-methyl-1H-pyrazol-3-yl)benzamide]
- EC50 [1]: 88 nM
- activity in OGTT (percent reduction in glucose excursion, AUC) (Zucker obese fa/fa rats): 50%
